Laboratory results: patent US5532229A, “Topical administration of vitamin D to mammals” (priority 1994, dated 1996)
“Also recorded” adds a separate entry of the source.

Legend:
[1] = Experiment 1: serum radioactivity after one administration of radiolabelled vitamin D3 (intracardiac, gastric, dermal); format: in vivo, Wistar rats
Source text: Each point is the mean of 3-6 rats;
A comparison of serum radioactivity after one administration of radiolabelled vitamin D3 via the skin or gut, compared to intravascular injection.
The protocols and procedures used in this work were approved beforehand by an animal-care committee at the University of Toronto. Wistar rats, 250-g weight and fed normal diet, were divided into three groups of six, and each rat was given 400,000 cpm of […] (57 mCi/mmol, Amersham, UK). One group was given the [^14 C]-vitamin D3 by intracardiac injection; one group was given the tracer through an infant-feeding tube, directly into the stomach; and one group received the dose by application in 50 μL ethanol to a 2×2 cm patch of shaved skin on the lower back. Blood was taken by bleeding 0.25 mL from the tail, from three rats at a time, for each time indicated in the graph, except for the final sample at 3 wk, which is from all rats at the time of killing with an anesthetic overdose. The serum was counted in a Beckman LS6800 beta-counter and results are corrected for background, sample volume, and rat weight.

[2] = Experiment 3: serum calcium, phosphate, alkaline phosphatase and body weight after 6 weeks; format: in vivo, Male Wistar rats; conditions: for Serum Alkaline phosphatase: 6 weeks
Protocol: Male, Wistar rats were obtained at 120-130 g, and placed on a 0.01% calcium, 0.7% phosphate diet that was vitamin D deficient (Teklad Test Diets, Madison, WI) this was for one week to help deplete vitamin D stores. For the next three weeks the rats were fed the vitamin D-deficient diet, but with normal, 0.5%, calcium. Starting with these 3 weeks, the rats were divided into four vitamin D3 -treatment groups, initially, nine rats per group: group a) supplemented once weekly with 0.6 μg vitamin D3 (average dose, 0.08 μg/day); group b) supplemented once every second day with vitamin D3 to provide 2 nmol/day, i.e., each dose was 4 nmol of vitamin D3; group c) supplemented once every second day with vitamin D3 to provide 8 μg/day. The preceding groups all received the vitamin D3 through an infant-feeding tube inserted through the mouth into the stomach. One group, d), received its vitamin D3 in the ethanol applied onto a shaved 2 cm×2 cm patch of skin on the back, this was done every second day to provide vitamin D3 at 8 μg/day. The volume of each dose of vitamin D3 given was adjusted so that the stated doses are per 250 g body weight. Over a second 3-week period while maintaining the described vitamin D3 dosing regimens, diet calcium content was changed weekly and blood sampling was started (that is, changes in calcium and sampling was from weeks 4 to 6, inclusive, of receiving the appropriate vitamin D3 supplement). Diet calcium was first dropped to 0.01% then raised to 1.5% and finally dropped again to 0.01%. For each week of dietary calcium manipulation, blood was obtained at day zero (the day of but just prior to the change in calcium), and days 1, 3, and 7 after the change. During the first week, 0.5 mL of blood was taken on the first two of these days and anticoagulated with heparin, the cells were isolated and resuspended in normal rat plasma and reinjected into the femoral vein. […] For the subsequent samplings, only 0.2-0.3 mL of blood was taken by bleeding from the tail into precalibrated microcentrifuge tubes. In this way, the bleeds prior to sacrifice removed a net total of less than 2 mL of blood, that is, less than or equal to 10% of the blood volume. Samples of daytime urine was collected into microfuge tubes that were fastened to the cones of metabolic collection funnels designed to hang under the wire cages. The cages and cones were rinsed with 0.1 mol/L hydrochloric acid prior to each collection. To eliminate contamination of the urine with diet, stool or water, the rats were placed into these separate cages only during the urine-collection period, until about 1 mL urine was present in the microfuge tube, this was typically within 5 min to one hour. […]

[3] = Experiment 4: short-term serum 25(OH)D3 response to increasing vitamin D3 doses; format: in vivo, rats; conditions: first 48 hours
Protocol: Each point represents the mean ±SEM of 7 normal, 250-g rats;
Toxicity: Short-term responses to increasing doses of vitamin D3 given dermally or by gastric tube.
To compare the efficacy of increasing doses of vitamin D3 in the short term. A fatal oral vitamin D3 dose is 14 days of 2600 μg/day (Sheppard RM and DeLuca HF, Arch Biochem Biophys 1980; 202: 43-55). The present experiment was designed to compare effects of doses up to this level, given by gastric tube or dermally.

C=C1CC[C@H](O)C/C1=C/C=C1\CCC[C@]2(C)[C@@H]([C@H](C)CCCC(C)C)CC[C@@H]12 [vitamin D3]
difference in serum radioactivity between dermal and oral groups ([1]; 3 wk): not statistically significant | vitamin D3 delivered into the blood compared to direct injection ([1]; dermal and gastric): less than half | rate of uptake into the circulation from the skin vs gut ([1]; one tracer dose, rats): more slowly than from the gut | radioactivity in kidney, liver, and adipose tissues ([1]; radioactive vitamin D3): paralleled to the serum levels | Serum Alkaline phosphatase ([2]; 0.08 μg/day diet): 119 U/L | Serum Alkaline phosphatase ([2]; 0.8 μg/day G1 (gastric)): 151 U/L | Serum Alkaline phosphatase ([2]; 8 μg/day G1 (gastric)): 147 U/L | Serum Alkaline phosphatase ([2]; 8 μg/day dermal): 152 U/L | body weight difference between groups ([2]; end of experiment 3): no weight differences between the groups | serum 25(OH)D3 vs dose ([3]; dermal, 800 to 2600 μg): does not parallel the vitamin D3 dose beyond the 800 μg (2000 nmol)/day dose; also recorded: striking plateau | serum 25(OH)D3 vs dose ([3]; gastric, up to 2600 μg): parallels the vitamin D3 dose; also recorded: increased in a direct parallel to the dose
